Results reported in patent US20080226758A1, “Lipoxygenase and Cyclooxygenase Inhibition” (priority 2006, published 2008).
“And” between values parts separate entries of the source, which are not always exact repeats. Equal values may be shown once.

Columns and labels:
Format in all cases: biochemical
15-LO = biological target: T1, 15-LO (Oryctolagus cuniculus, UniProt P12530); experiment: 15-LO assay (13-HPODE, spectrophotometric); settings: rabbit reticulocytes; 13-HPODE spectrophotometrically
T1 construct: endogenous in cells; host or cells: rabbit reticulocytes
T1 sequence (P12530 1-663): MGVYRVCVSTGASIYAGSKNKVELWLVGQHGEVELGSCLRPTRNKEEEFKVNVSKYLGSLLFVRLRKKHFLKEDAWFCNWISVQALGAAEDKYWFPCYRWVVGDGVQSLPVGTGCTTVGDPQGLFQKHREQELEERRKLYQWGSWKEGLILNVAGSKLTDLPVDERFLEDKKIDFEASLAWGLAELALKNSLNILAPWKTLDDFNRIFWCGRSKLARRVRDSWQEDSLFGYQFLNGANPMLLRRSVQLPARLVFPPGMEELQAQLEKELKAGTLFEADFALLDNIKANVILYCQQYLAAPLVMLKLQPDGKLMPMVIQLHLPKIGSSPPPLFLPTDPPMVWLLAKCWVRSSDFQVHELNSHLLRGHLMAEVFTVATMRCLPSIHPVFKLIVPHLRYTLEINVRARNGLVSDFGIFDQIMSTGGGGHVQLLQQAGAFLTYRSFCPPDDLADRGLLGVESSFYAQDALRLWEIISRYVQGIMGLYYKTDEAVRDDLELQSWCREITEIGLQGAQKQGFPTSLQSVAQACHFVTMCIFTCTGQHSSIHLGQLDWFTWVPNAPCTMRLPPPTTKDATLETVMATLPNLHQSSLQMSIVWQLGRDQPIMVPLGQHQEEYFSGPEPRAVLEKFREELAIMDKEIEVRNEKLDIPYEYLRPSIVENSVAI
Experimental: (§1) 5-LO and 15-LO assays: Human peripheral blood mononuclear cells (PBMC) cells and rabbits reticulocytes were used in the 5-LO and 15-LO bioassays, and the assays were conducted according to the protocols reported previously, with either linoleic acid or arachidonic acid as substrates. LO activity was measured by quantifying immunodetectable Leukotriene B4 (LTB4) specifically with enzyme immunoassay (EIA) in the 5-LO assay, or monitoring 13-hydroperoxy-9,11-octadecadienoic acid (13-HPODE) spectrophotometrically in the 15-LO assay.
(§2) The results were expressed as either percentage inhibition, or IC50, for test samples and data represent the average ±SD of at least triplicate determinations.

Human recombinant COX-2 = biological target: T2, Human recombinant COX-2 (Homo sapiens, UniProt P35354); experiment: COX-2 inhibition assay (PGE2 EIA); settings: human recombinant COX-2 expressed in Sf21 cells; 0.3 μM arachidonic acid
T2 construct: purchased Sigma C-0858; host or cells: insect Sf21 cells
T2 sequence (P35354 18-604): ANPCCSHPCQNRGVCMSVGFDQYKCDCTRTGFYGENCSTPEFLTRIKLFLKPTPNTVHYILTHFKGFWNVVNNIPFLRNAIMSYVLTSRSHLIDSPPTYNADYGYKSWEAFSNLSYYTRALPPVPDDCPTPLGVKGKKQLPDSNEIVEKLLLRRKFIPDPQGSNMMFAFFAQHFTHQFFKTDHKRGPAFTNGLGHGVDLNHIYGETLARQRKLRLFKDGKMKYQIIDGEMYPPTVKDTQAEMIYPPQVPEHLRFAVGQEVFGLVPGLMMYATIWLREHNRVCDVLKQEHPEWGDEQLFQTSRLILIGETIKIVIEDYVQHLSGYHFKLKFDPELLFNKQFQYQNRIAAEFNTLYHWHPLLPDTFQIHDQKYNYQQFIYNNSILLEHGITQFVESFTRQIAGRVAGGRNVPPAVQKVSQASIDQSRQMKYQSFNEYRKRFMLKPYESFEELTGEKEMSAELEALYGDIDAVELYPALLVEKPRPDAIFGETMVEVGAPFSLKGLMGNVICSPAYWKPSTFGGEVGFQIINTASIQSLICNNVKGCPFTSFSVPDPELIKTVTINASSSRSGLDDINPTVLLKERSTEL
Experimental: COX-1 and COX-2 assays: COX-1 and -2 Inhibition assays were performed by the methods described previously with minor modifications. COX-2 enzyme was purchased from Sigma (Catalog # C-0858), and the PGE2 EIA kit from Amersham (Catalog # RPN 220). Human recombinant COX-2, expressed in insect Sf21 cells, and human platelets, respectively, were used in the COX-2 and COX-1 assays. The extract and partitions were dissolved in DMSO (Sigma, USA), and tested at 100 μg/mL (final concentration). The pure compounds were initially tested at 30 μM. […] Test samples were preincubated with 0.12 μg/ml enzyme in modified Tris-HCl buffer pH 7.7 (COX-2), and with cells (5×10^7/ml), in modified HEPES buffer pH 7.4 (COX-1) for 15 minutes at 37° C. The reactions were initiated by addition of 0.3 μM arachidonic acid (COX-2), and 100 μM arachidonic acid (COX-1), respectively, for another 5-minute incubation period, then terminated by further addition of 1 N HCl. An aliquot was then combined with the EIA kit for spectrophotometric determination of the quantity of PGE2 formed.
as §2

5-LO = biological target: T3, 5-LO (Homo sapiens, UniProt P09917); experiment: 5-LO assay (LTB4 by EIA); settings: human PBMC
T3 construct: endogenous in cells; host or cells: human peripheral blood mononuclear cells (PBMC)
T3 sequence (P09917 1-674): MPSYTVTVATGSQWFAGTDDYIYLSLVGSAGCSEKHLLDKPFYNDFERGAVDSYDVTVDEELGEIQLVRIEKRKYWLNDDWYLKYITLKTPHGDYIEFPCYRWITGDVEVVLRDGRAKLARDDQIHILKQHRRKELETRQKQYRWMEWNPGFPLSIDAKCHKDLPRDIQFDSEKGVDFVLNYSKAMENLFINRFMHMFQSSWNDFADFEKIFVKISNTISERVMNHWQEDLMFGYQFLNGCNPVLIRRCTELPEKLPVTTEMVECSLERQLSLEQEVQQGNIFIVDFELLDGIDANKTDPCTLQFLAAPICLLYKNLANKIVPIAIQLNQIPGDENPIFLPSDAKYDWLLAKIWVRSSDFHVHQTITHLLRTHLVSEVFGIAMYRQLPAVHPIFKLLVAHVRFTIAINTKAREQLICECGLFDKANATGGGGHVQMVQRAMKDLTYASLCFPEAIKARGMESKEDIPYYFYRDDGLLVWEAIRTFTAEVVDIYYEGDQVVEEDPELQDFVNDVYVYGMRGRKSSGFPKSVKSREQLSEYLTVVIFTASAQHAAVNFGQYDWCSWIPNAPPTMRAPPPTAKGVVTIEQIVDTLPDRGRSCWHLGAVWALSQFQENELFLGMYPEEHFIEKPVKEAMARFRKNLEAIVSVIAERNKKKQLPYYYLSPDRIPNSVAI
Experimental: as §1, §2

Compound | IC50 (15-LO) [nM] | IC50 (Human recombinant COX-2) [nM] | IC50 (5-LO)
O=C1OC(c2ccc(O)c(O)c2)C2COC(c3ccc(O)c(O)c3)C12 (single isomer, unassigned; (+)) [compound 1, (+)-3,4,3′,4′-tetrahydroxy-9,7′α-epoxylignano-7α,9′-lactone] | 520 | 90200 | 
OCC1C(c2ccc(O)c(O)c2)OCC1C(O)c1ccc(O)c(O)c1 (single isomer, unassigned; (+)) [compound 2, (+)-3,3′-bisdemethyltanegool] | 760 | 73900 | 
Oc1ccc(C2OCC3C(c4ccc(O)c(O)c4)OCC23)cc1O (stereo not drawn) [compound 4, 3,3′-bisdemethylpinoresinol] | 520 | > 100000 | 
O=c1c(O)c(-c2ccc(O)c(O)c2)oc2cc(O)cc(O)c12 [compound 5, quercetin] | 430 | 28600 | 
O=c1c(O)c(-c2ccc(O)cc2)oc2cc(O)cc(O)c12 [compound 6, kaempferol] | 2200 |  | 2650 to 13800 nM and 2700 nM
COc1cc2ccc(=O)oc2cc1O [compound 7, scopoletin] | 16500 |  | 
COc1cc2oc(=O)ccc2cc1O [compound 8, isoscopoletin] | 15100 |  | 
